From patent US11512079B2, “Heterocycle substituted pyridine derivative antifungal agents” (Amplyx Pharmaceuticals, Inc., priority 2017, dated 2022)
Converted amounts (≈) assume the structure as drawn.

Tests used:
C. neoformans isolates = assay: Activity vs susceptible and FLC non-susceptible/resistant strains, broth microdilution; assay type: cell-based, Cryptococcus neoformans
Excerpt: (§1) The activity of Gwt1 inhibitors against susceptible and FLC non-susceptible/resistant strains.
(§2) Isolates tested. C. neoformans strains H99, DUMC 118.00, DUMC 158.03 and C. gattii strains R272, and RSA-MW-3515 were obtained from Duke University. C. albicans 90028, A. fumigatus MYA3626, C. neoformans 14116, C. neoformans 76484 and the pathogenic Cryptococcus reference strains panel (ATCC MP-11) were obtained from American Type Culture Collection (ATCC, Manassas, Va., USA). The MP-11 panel consists of strains representing eight molecular types and three subtypes of C. neoformans and C. gattii.
(§3) Antifungal susceptibility testing. To establish antimicrobial activity, broth microdilution susceptibility testing was performed according to Clinical and Laboratory Standards Institute (CLSI) guidelines M27-A3 for yeasts and M38-A2 for molds. Compound 2 and analogs were first diluted in DMSO to obtain intermediate dilutions. These were further diluted in microtiter plates to obtain a final concentration of 2 to 0.002 μg/mL. 1 μl of DMSO was added to “No drug” control wells. The solutions were mixed on a plate shaker for 10 mins and plates incubated at 35° C. for 40 to 48 h (C. albicans, A. fumigatus) and 72 h (C. neoformans). The minimum concentration that led to 50% reduction in fungal growth as compared to the control (with the aid of a reading mirror) was determined as the minimum inhibitory concentration (MIC) for C. albicans and C. neoformans.

C. gattii isolates = assay: as above; assay type: cell-based, Cryptococcus gattii
Excerpt: as §1, §2, §3

[1] = tested on: strains of C. neoformans and C. gattii; assay: Activity vs Cryptococcus, summary over the strains tested; assay type: cell-based, Cryptococcus neoformans and Cryptococcus gattii; conditions: for MIC GEOMEAN: geometric mean over the 18 isolates of C. neoformans and C. gattii; for MIC90: panel of 18 isolates of C. neoformans and C. gattii
Excerpt: as §1, §2, §3

[2] = C. neoformans DUMC 118.00 (FLC-resistant)
[3] = C. neoformans DUMC 158.03 (FLC-resistant)
[4] = C. gattii RSA-MW-3615 (FLC-resistant)

SMILES | MIC (C. neoformans isolates; C. neoformans 14116) | MIC (C. neoformans isolates; C. neoformans 76484) | MIC (C. neoformans isolates; [2]) | MIC (C. neoformans isolates; [3]) | MIC (C. neoformans isolates; C. neoformans H99) | MIC (C. neoformans isolates; C. neoformans MYA-4564) | MIC (C. neoformans isolates; C. neoformans MYA-4565) | MIC (C. neoformans isolates; C. neoformans MYA-4566) | MIC (C. neoformans isolates; C. neoformans MYA-4567) | MIC (C. gattii isolates; C. gattii MYA-4093) | MIC (C. gattii isolates; C. gattii MYA-4094) | MIC (C. gattii isolates; C. gattii MYA-4560) | MIC (C. gattii isolates; C. gattii MYA-4561) | MIC (C. gattii isolates; C. gattii MYA-4562) | MIC (C. gattii isolates; C. gattii MYA-4563) | MIC (C. gattii isolates; C. gattii MYA-4877) | MIC (C. gattii isolates; [4]) | MIC GEOMEAN [1] | MIC90 [1]
Nc1ncccc1-c1cc(Cc2ccc(OCc3ccccc3)cc2)no1 [Example 2020] | 0.031 µg/mL (≈ 0.0867 µM) | 0.063 µg/mL (≈ 0.176 µM) | 0.063 µg/mL (≈ 0.176 µM) | 0.25 µg/mL (≈ 0.699 µM) | 0.031 µg/mL (≈ 0.0867 µM) | 0.063 µg/mL (≈ 0.176 µM) | 0.25 µg/mL (≈ 0.699 µM) | 0.125 µg/mL (≈ 0.35 µM) | 0.063 µg/mL (≈ 0.176 µM) | 0.125 µg/mL (≈ 0.35 µM) | 0.25 µg/mL (≈ 0.699 µM) | 0.063 µg/mL (≈ 0.176 µM) | 0.125 µg/mL (≈ 0.35 µM) | 0.125 µg/mL (≈ 0.35 µM) | 0.125 µg/mL (≈ 0.35 µM) | 0.063 µg/mL (≈ 0.176 µM) | 0.031 µg/mL (≈ 0.0867 µM) | 0.085 µg/mL (≈ 0.238 µM) | 0.25 µg/mL (≈ 0.699 µM)
Nc1ncccc1-c1cc(Cc2ccc(Oc3cccc(F)n3)cc2)no1 [Example 2039] | 0.004 µg/mL (≈ 0.011 µM) | 0.004 µg/mL (≈ 0.011 µM) | 0.016 µg/mL (≈ 0.0442 µM) | 0.031 µg/mL (≈ 0.0855 µM) | 0.004 µg/mL (≈ 0.011 µM) | 0.004 µg/mL (≈ 0.011 µM) | 0.031 µg/mL (≈ 0.0855 µM) | 0.008 µg/mL (≈ 0.0221 µM) | 0.016 µg/mL (≈ 0.0442 µM) | 0.016 µg/mL (≈ 0.0442 µM) | 0.016 µg/mL (≈ 0.0442 µM) | 0.008 µg/mL (≈ 0.0221 µM) | 0.016 µg/mL (≈ 0.0442 µM) | 0.016 µg/mL (≈ 0.0442 µM) | 0.016 µg/mL (≈ 0.0442 µM) | 0.008 µg/mL (≈ 0.0221 µM) | 0.004 µg/mL (≈ 0.011 µM) | 0.010 µg/mL (≈ 0.0276 µM) | 0.031 µg/mL (≈ 0.0855 µM)
